PubChem BioAssay (NCI)
Values joined by “and” are separate entries in the source; they are usually repeats but may differ in a detail not shown here. Equal entries are not always repeated.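 The compound was tested at five concentrations on cells cultured in 96-well plates, with a 48-hour exposure period. GI50 is the concentration that inhibits growth by half. TGI denotes the concentration required for complete inhibition of growth.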 Where a SMILES comes first, the peptide text is derived from it. [ ]: non-standard residue; d: D form. The star is where a group is joined. ξ: configuration not given here. X3 = COc1ccc(C(N*)c2ccc(OC)cc2)cc1; NMeF = CN[C@@H](Cc1ccccc1)C(=O)O; NMeD = CN[C@@H](CC(=O)O)C(=O)O; NMeV = CN[C@H](C(=O)O)C(C)C; ξNMeV = CNC(C(=O)O)C(C)C; Boc = CC(C)(C)OC(=O)*; ξNMeA = CNC(C)C(=O)O; ξV = CC(C)C(N)C(=O)O

Columns and labels:
Assay in all cases: DTP human tumour cell line panel, 48 h
U251 CNS = system: U251 CNS
HL-60(TB) leukemia = system: HL-60(TB) leukemia
ACHN renal = system: ACHN renal
SNB-19 CNS = system: SNB-19 CNS
SK-MEL-28 melanoma = system: SK-MEL-28 melanoma
SR leukemia = system: SR leukemia
HCT-15 colon = system: HCT-15 colon
MDA-MB-435 = system: MDA-MB-435
K-562 leukemia = system: K-562 leukemia
OVCAR-3 ovarian = system: OVCAR-3 ovarian

Structure (SMILES) | GI50 (U251 CNS) | TGI (U251 CNS) | GI50 (HL-60(TB) leukemia) | TGI (HL-60(TB) leukemia) | GI50 (ACHN renal) | TGI (ACHN renal) | GI50 (SNB-19 CNS) | TGI (SNB-19 CNS) | GI50 (SK-MEL-28 melanoma) | TGI (SK-MEL-28 melanoma) | GI50 (SR leukemia) | TGI (SR leukemia) | GI50 (HCT-15 colon) | TGI (HCT-15 colon) | TGI (MDA-MB-435) | GI50 (K-562 leukemia) | TGI (K-562 leukemia) | GI50 (OVCAR-3 ovarian) | TGI (OVCAR-3 ovarian) | GI50 (MDA-MB-435)
COc1ccc(C(NC(=O)C[C@@H](C(=O)N(C)C(C)C(=O)O)N(C)C(=O)[C@@H]2CCCN2C(=O)[C@H](C(C)C)N(C)C(=O)C(C(C)C)N(C)C(=O)[C@H](Cc2ccccc2)N(C)C(=O)C(NC(=O)OC(C)(C)C)C(C)C)c2ccc(OC)cc2)cc1 (some centres undefined) (Boc-[ξV][NMeF][ξNMeV][NMeV]P[NMeD](X3)[ξNMeA]-OH) | 19.4 µM | 23.6 µM and 35.7 µM | 24 µM | 18.7 µM and 45.2 µM | 10.6 µM | 37.5 µM and 22.5 µM | 17.5 µM | 37.5 µM and 33 µM | 17.1 µM | 13.6 µM and 30.9 µM | 0.00375 µM | 37.5 µM and 36 µM | 18.2 µM | 37.5 µM and 33.3 µM | 20 µM | 18.9 µM | 26.9 µM and 43.8 µM | 18.2 µM | 27.4 µM and 32.9 µM | –
CC1(COc2ccc3c(c2)ncn3-c2ccc3cccc(N4CCC(N)CC4)c3n2)COC1 | 1.7 µM and 1.87 µM | 4.09 µM and 5.66 µM | 1.82 µM and 1.8 µM | 4.54 µM and 4.49 µM | 2.61 µM and 2.24 µM | > 10 µM | 4.35 µM and 3.36 µM | 13.2 µM and > 10 µM | 3.5 µM and 3.37 µM | 9.34 µM and 8.36 µM | 0.769 µM and 0.347 µM | 4.7 µM and 2.4 µM | 3.37 µM and 2.92 µM | 12.3 µM and > 10 µM | 10.5 µM and > 10 µM | 2.1 µM and 1.94 µM | 8.36 µM and 8.92 µM | 2.35 µM and 2.99 µM | 4.73 µM and > 10 µM | 3.06 µM and 3.25 µM
CCn1c(-c2nonc2N)nc2c(C#CC(C)(C)O)nc(OC[C@@H](N)c3ccccc3)cc21 | 3.98 µM | 7.63 µM | 5.23 µM | 10.3 µM | 4.17 µM | 9.42 µM | 6 µM | 11.6 µM | 4.85 µM | 8.47 µM | 5.67 µM | 16.8 µM | 5.78 µM | 21.1 µM | 9.81 µM | 5.19 µM | 14.1 µM | 4.24 µM | 8.23 µM | 5.22 µM
COCCOc1ccc(-c2nc3ccc(-c4nc5ccc(N6CCN(C)CC6)cc5[nH]4)cc3[nH]2)cc1 | 0.659 µM | 10.2 µM | 1.62 µM | 91.8 µM | 10.7 µM | > 100 µM | 1.87 µM | 10.5 µM | 0.478 µM | 2.21 µM | 0.5 µM | 21.9 µM | 38.7 µM | > 100 µM | 2.14 µM | 0.911 µM | > 100 µM | 0.621 µM | 3.13 µM | 0.621 µM
O=C(Nc1ccc(Oc2ccc(Nc3nc4ccccc4s3)cc2)cc1)Nc1ccc(Cl)c(C(F)(F)F)c1 | 1.61 µM | 3.55 µM | 2.21 µM | 5.59 µM | 1.51 µM | 5.49 µM | 1.71 µM | 3.62 µM | 1.57 µM | 3.2 µM | 1.32 µM | 5.81 µM | 1.54 µM | 3.44 µM | 3 µM | 2.51 µM | 14.2 µM | 1.54 µM | 3.98 µM | 1.48 µM
CCCCCCCCCCn1cc[n+](C)c1 | 1.86 µM | 19.1 µM | 0.226 µM | 1.7 µM | 3.38 µM | > 49.2 µM | 3.96 µM | 32.9 µM | 3.33 µM | 15.1 µM | 0.163 µM | 4.16 µM | 17.9 µM | > 100 µM | 8.64 µM | 0.263 µM | 3.67 µM | 1.94 µM | 8.59 µM | 1.4 µM
COc1ccc2nc3cc(Cl)ccc3c(NCCNCC(C)O)c2c1 (centres undefined) | 1.99 µM | 4.62 µM | 1.9 µM | 6.05 µM | 1.43 µM | 7.22 µM | 2.19 µM | 9.78 µM | 2.06 µM | 4.02 µM | 1.09 µM | 8.04 µM | 1.21 µM | 4.36 µM | 3.1 µM | 1.28 µM | 10 µM | 2.38 µM | 8.04 µM | 1.51 µM
O=C1NC(=NC(CO)Cc2ccccc2)S/C1=C\c1ccc2ncccc2c1 (centres undefined) | > 20.9 µM and 2.29 µM | > 25 µM | 9.76 µM and 3.88 µM | > 25 µM and 14.3 µM | 11.2 µM and 3.55 µM | > 25 µM | > 25 µM and 4.34 µM | > 25 µM | > 23.7 µM and 7.24 µM | > 25 µM and 24.4 µM | 6.94 µM and 0.888 µM | > 22.6 µM and 5.23 µM | 10.5 µM and 4.19 µM | > 25 µM | > 25 µM | 11.2 µM and 3.48 µM | > 25 µM | 19.8 µM and 2.73 µM | > 25 µM and 11.8 µM | 6.21 µM and 2.54 µM
c1ccc(Sc2ncnc3ccccc23)cc1 | 12.9 µM | 31.8 µM | 6.37 µM | 27.9 µM | 11 µM | 31.6 µM | 18.6 µM | 51.5 µM | 23.7 µM | 89.2 µM | 4.78 µM | 53.1 µM | 8.03 µM | 37.2 µM | 32.5 µM | 9.72 µM | > 100 µM | 14.6 µM | 28 µM | 8.19 µM
Cc1nnc(NC(=O)c2nc(S(=O)(=O)Cc3ccc(F)cc3)ncc2Cl)s1 | 4.12 µM | 15.5 µM | 2.6 µM | 4.73 µM | 1.94 µM | 3.68 µM | 15.6 µM | 35.1 µM | 1.73 µM | 3.26 µM | 1.44 µM | 3.55 µM | 1.84 µM | 3.91 µM | 3.43 µM | 1.77 µM | 4.52 µM | 1.94 µM | 3.47 µM | 1.82 µM
CC(=O)CC(OC(C)=O)C1=CCC2C(CC1C)OC(=O)C2C (centres undefined) | – | > 100 µM | – | > 100 µM | – | > 100 µM | – | > 100 µM | – | > 100 µM | – | > 100 µM | – | > 100 µM | > 100 µM | – | > 100 µM | – | > 100 µM | –
